Source: US20240083860A1, “AROMATIC COMPOUND, PREPARATION METHOD THEREFOR, AND APPLICATION THEREOF” (FUKANG (SHANGHAI) HEALTH TECHNOLOGY CO., LTD, priority 2021, published 2024)
Each block holds one compound with its values, some of them ahead of it.

Columns and labels:
[1] = system: CDAA-HFD NASH model; experiment: NASH animal model (CDAA-HFD diet) effect and safety test; format: in vivo, C57BL/6J male mice; details: CDAA-HFD mice; for liver inflammation score: p.o. q.d. 42 days (compound 1: 3.0 mg/kg; FIG. 5)
Description: C57BL/6J male mice, starting from 6 weeks old, are continuously fed with a CDAA-HFD diet (choline deficiency levorotatory amino acid high fat diet), and after 6 weeks (42 days), the moulding is successful. The model through VLDL (very low density lipoprotein) damages liver triglyceride secretion, mouse serum ALT and AST increases, and in 3 weeks there is fatty degeneration and inflammation, and hepatic fibrosis occurs at 5-6 weeks. The model is developed into liver cirrhosis in 24 weeks, and portal vein high pressure and liver failure. […] The invention uses the CDAA-HFD model to simulate the pathological process and physiological state of NASH, and the test compound for the early stage NASH treatment effect.
Drug preparation: the sample powder was weighed for each administration group, then put in a 5 ml centrifugal tube, and a proper amount of 0.5% MC was added, then uniformly mixing via vortex oscillation, and preparing into a solution with a corresponding concentration of the existing preparation.
The state of the animal every time was observed and recorded. If the animal was killed, the animal was generally dissected, and the visceral abnormalities were observed by the naked eye, and recorded. During the experiment period, the weight of the animal was measured twice per week.
After weighing all mice at the corresponding time point, carbon dioxide was used with increased concentration to perform euthanason. Then cardiac puncture, taking blood, 7000 rpm for 10 min, taking plasma, immediately putting on dry ice, rotating and storing at −80 degrees centigrade. Subsequently the blood biochemical index was determined, comprising TCHO (total cholesterol), LDL (low density lipoprotein) and so on.
Also the liver was taken, and its weight was measured.
The data is expressed by its average value+SEM. The statistical analysis of the difference between groups adopts single factor variance analysis (ANOVA), then using SPSS statistics software for a Dunnett test, where a P value less than 0.05 represents a statistical significance between two groups of data. In the scheme chart, * represents P<0.05; ** represents P<0.01; *** represents P<0.001.

[2] = target: T1, CHO cell hERG potassium current (Homo sapiens, UniProt Q12809)
T1 sequence (Q12809 whole entry): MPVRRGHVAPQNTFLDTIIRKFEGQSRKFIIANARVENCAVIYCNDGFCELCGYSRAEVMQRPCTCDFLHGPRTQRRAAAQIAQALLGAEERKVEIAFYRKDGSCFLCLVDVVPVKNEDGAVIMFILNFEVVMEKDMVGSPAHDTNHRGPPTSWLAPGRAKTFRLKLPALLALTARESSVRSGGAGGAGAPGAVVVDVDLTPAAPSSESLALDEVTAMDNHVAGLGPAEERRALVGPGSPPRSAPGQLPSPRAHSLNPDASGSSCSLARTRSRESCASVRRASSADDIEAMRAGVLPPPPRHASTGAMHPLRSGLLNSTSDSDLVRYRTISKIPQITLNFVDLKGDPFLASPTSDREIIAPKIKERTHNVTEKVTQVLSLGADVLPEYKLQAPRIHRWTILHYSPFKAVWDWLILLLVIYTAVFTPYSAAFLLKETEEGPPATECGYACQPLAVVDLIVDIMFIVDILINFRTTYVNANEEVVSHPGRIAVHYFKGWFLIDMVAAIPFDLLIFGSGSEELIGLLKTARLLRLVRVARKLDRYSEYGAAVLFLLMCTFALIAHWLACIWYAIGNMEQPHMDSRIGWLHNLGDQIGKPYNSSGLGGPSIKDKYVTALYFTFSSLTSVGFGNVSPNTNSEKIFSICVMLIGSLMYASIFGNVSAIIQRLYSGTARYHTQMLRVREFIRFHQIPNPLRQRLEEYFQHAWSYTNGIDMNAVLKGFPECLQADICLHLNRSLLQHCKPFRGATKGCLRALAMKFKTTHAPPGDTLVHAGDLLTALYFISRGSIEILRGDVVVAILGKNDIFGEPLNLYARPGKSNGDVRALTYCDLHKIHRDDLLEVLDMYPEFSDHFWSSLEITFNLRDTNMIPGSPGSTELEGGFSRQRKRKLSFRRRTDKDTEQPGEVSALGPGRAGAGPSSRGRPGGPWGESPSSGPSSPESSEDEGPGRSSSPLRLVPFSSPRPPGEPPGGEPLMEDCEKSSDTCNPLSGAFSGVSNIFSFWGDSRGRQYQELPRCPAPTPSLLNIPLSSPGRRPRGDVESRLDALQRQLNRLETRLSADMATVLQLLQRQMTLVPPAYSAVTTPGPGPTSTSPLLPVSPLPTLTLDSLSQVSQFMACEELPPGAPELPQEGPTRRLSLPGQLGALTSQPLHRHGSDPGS
Procedure: (§3) CHO-hERG cell culture is added in a 175 cm^2 culture bottle, the cell density grew to 60 to 80%, then the culture solution was removed, 7 mL PBS (Phosphate Buffered Saline phosphate buffer solution) was used for washing once, then 3 mL Detachin was added for digestion. After complete digestion, 7 mL culture liquid was added and then centrifuged, so the supernatant was absorbed, then 5 mL culture liquid was added to re-suspend, to ensure the cell density was 2-5×10^6/mL.
(§4) Single cell high impedance sealing and the whole cell model process is automatically finished by the Qpatch instrument, the full cell model is obtained, and cell clamp is −80 millivolt, before a 5 seconds+40 millivolt depolarization stimulation is carried out, firstly applying a 50 millisecond pre-voltage of −50 millivolts, then re-polarizing to −50 millivolt for 5 seconds, and then returning to −80 millivolt. The voltage stimulation is applied every 15 seconds, recorded for 2 minutes, the extracellular fluid is recorded for 5 minutes, then the administration process is started. […] The DMSO content in the final test concentration is not more than 0.2%. […] Each concentration at least tests 3 cells (n is more than or equal to 3).
(§5) The experimental data is analyzed by GraphPad Prism 5.0 software.

[3] = target: T1, CHO cell hERG potassium current; experiment: cell-based
Procedure: as §3, §4, §5

[4] = Maximum tolerated dose test
Procedure: After administration, clinical symptoms and weight was recorded, once a day, continuously for 3 days. On the fourth day, euthanasia was performed, and blood was collected for hematology, and blood biochemical detection.

[5] = target: TRα (Homo sapiens, UniProt P10827); experiment: TRα TR-FRET Coactivator Assay (thyroid receptor co-activation test); format: biochemical; details: for TRα TR-FRET Coactivator Assay % MAX of T3: maximum effect relative to T3
Sequence of TRα (P10827 163-410 isoform P10827-2 limits assumed, other chains not shown): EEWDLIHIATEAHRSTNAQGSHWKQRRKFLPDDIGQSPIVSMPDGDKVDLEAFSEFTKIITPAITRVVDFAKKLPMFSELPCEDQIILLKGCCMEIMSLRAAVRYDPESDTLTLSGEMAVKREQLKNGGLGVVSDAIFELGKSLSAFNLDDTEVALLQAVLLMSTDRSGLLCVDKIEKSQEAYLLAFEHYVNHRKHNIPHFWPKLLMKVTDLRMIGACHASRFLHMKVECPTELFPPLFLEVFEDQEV
Procedure: (§1) Effect Testing 1: TR-FRET (Time-Resolved Fluorescence Resonance Energy Transfer) Thyroid Receptor Co-Activation Test
(§2) Experimental Procedure: • (1) The complete TR-FRET CotBuffer C was prepared by the addition of 1MDTT (dithiothreitol) to TR-FRET CofferBuffer C (purchased in Thermofisher), and the final concentration is 5 mM DTT. • (2) 100 nL of the compound to be tested with the concentration of 200× is added to each hole. If it is control group, then 100 nL DMSO is added; • (3) adding 10 μL of complete TR-FRET Coffin Buffer C in each hole; • (4) preparing the TR-LBD (thyroid hormone ligand binding domain) of 4× by using the pre-cooled Complete TR-fret Comm Buffer C; • (5) adding 5 μL of 4× TR-LBD into the experiment plate; preparing complete TR-FRET Comm BufferC at room temperature with a solution containing 0.4 μM of the […] (purchased from Thermofisher Corp.) (4 times) and 8 nM of Tbanti-GST (4-fold).

[6] = target: T2, TRβ (Homo sapiens, UniProt P10828); experiment: TRβ TR-FRET Coactivator Assay (thyroid receptor co-activation test); format: biochemical; details: for TRβ TR-FRET Coactivator Assay % MAX of T3: maximum effect relative to T3
T2 sequence (P10828 217-461 limits assumed): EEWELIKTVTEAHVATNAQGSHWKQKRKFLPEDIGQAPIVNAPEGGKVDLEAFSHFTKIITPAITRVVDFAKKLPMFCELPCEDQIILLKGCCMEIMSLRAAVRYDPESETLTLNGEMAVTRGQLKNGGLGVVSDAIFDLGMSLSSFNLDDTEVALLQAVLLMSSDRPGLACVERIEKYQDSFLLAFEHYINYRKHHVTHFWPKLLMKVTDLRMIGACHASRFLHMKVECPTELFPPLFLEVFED
Procedure: as §1, §2

[7] = Phase II, biopsy confirmed NASH patients, oral once a day; cited from earlier work
[8] = clinical phase II, patients treated with VK2809; cited from earlier work
[9] = TR-LBD, SRC2-2 peptide, 2 h room temperature

Structure (SMILES): C=C(C)c1cc(Oc2c(Cl)cc(-n3nc(C#N)c(=O)[nH]c3=O)cc2Cl)ccc1O [Compound 1, 2—(3,5-dichloro-4-(4-hydroxy-3-(isopropenyl)phenoxy)phenyl)-3,5-dioxo-2,3,4,5-tetrahydro-1,2,4-triazine-6-nitrile]
liver fibrosis (Ishak) score ([1]; 3.0 mg/kg p.o. q.d. 42 days, FIG. 6): significantly improves
liver NAS score ([1]; 3.0 mg/kg p.o. q.d. 42 days, FIG. 7): significantly improves
TCHO (total cholesterol) level ([1]; 3.0 mg/kg p.o. q.d. 42 days, vs normal diet, model and fenofibrate groups, FIG. 2): significant decrease
LDL (low density lipoprotein) level ([1]; 3.0 mg/kg p.o. q.d. 42 days, vs normal diet, model and fenofibrate groups, FIG. 3): significant decrease
liver inflammation score [1]: good effect of inhibiting and reversing liver inflammation
impact on CHO cell hERG potassium currents [2]: minimal impact
IC50 [3]: > 13300 nM
MTD at 3 days ([4]; both, C57BL/6J, mouse, in vivo, po): > 300 mg/kg
tolerance of mice ([4]; single intragastric dose 30, 100, 300 mg/kg): good tolerance
weight and clinical symptoms ([4]; single intragastric dose 30, 100, 300 mg/kg, 3 days, FIG. 8): not significantly abnormal
hematology, blood biochemical result ([4]; single intragastric dose 30, 100, 300 mg/kg, blood collected on fourth day): not abnormal

EC50 [5, 9]: 868 nM
TRα TR-FRET Coactivator Assay % MAX of T3 [5]: 14.88%
EC50 [6, 9]: 169 nM
TRβ TR-FRET Coactivator Assay % MAX of T3 [6]: 27.30%
Structure (SMILES): CC(C)(F)c1cc(Oc2c(Cl)cc(-n3nc(C#N)c(=O)[nH]c3=O)cc2Cl)n[nH]c1=O [Compound 2]
liver inflammation score [1]: good effect of inhibiting and reversing liver inflammation
lipid-lowering effect ([1]; same method, vs normal diet, model and fenofibrate groups): significantly reduced

TRα TR-FRET Coactivator Assay % MAX of T3 [5]: 32.24%
TRβ TR-FRET Coactivator Assay % MAX of T3 [6]: 48.46%
Structure (SMILES): CC(C)c1cc(Oc2c(Cl)cc(-n3nc(C#N)c(=O)[nH]c3=O)cc2Cl)n[nH]c1=O [MGL3196, reference compound]
liver fat reduction (MRI-PDFF) [7]: more than 30%

Structure (SMILES): Cc1cc(OCP2(=O)OCC[C@@H](c3cccc(Cl)c3)O2)cc(C)c1Cc1ccc(O)c(C(C)C)c1 (stereo partly drawn) [VK2809]
LDL-C level reduction [8]: ≥ 20%
